Values quoted from earlier work, collected in US20130172186A1 (priority 2010, published 2013).
Where two headings read alike, the source gives them in different places.

What was measured:
[1] = test system: phytoalexins and phenols in potato tubers; settings: tubers from treated plants after P. infestans challenge
P. cinnamomi = settings: 40 μg/ml phosphonate in culture, 4 days later

CCO[PH](=O)O [fosetyl-Al, aluminium tris(o-etyl phosphonate)]
observed instances in which pathogen growth was arrested at the local hypersensitive cell death sites (P. nicotianae; in vivo): 86%
increase of accumulation of phenols vs control tubers [1]: fivefold
increase of accumulation of phytoalexins vs control tubers [1]: approximately tenfold

phosphite
observed instances in which pathogen growth was arrested at the local hypersensitive cell death sites (P. nicotianae; fosetyl-Al (100 μg/ml)- or phosphite (70 μg/ml)-treated tobacco seedlings, in 24 h): 86%

phosphonate
P. cinnamomi growth inhibited (P. cinnamomi): about 70%
